In patent US10385085B2, “Crystal forms of sialic acid or salt or solvate thereof” (Ultragenyx Pharmaceutical Inc., priority 2015, dated 2019):
Where “and” joins values, the source holds several entries; their conditions need not be identical. Identical values can stand only once.

Key:
Format in all cases: physicochemical
[1] = Thermogravimetric/Differential Thermal Analysis (TG/DTA)
Description: Approximately, 10 mg of material was weighed into an open aluminium pan and loaded into a simultaneous thermogravimetric/differential thermal analyser (TG/DTA) and held at room temperature. The sample was then heated at a rate of 10° C./min from 25° C. to 300° C. during which time the change in sample weight was recorded along with any differential thermal events (DTA). Nitrogen was used as the purge gas, at a flow rate of 300 cm^3/min.

[2] = 7 day stress stability, chemical stability by HPLC
Description: The chemical purity was measured on an Agilent HP1100 HPLC system fitted with an Agilent variable wavelength UV detector. Samples were prepared by dissolving in diluent at a concentration of 1 mg/mL before being analysed under the following HPLC conditions:
(§1) The selected Forms (5, 3 and 2) were fully characterized by PLM, XRPD, ^1H NMR and IR spectroscopy, DSC, TG/DTA, GVS (with post-GVS XRPD), Karl Fischer titration for water content and HPLC analysis for purity. All of these forms with the addition of Form 1 were also placed under a stress-stability test, at three different conditions for one week (ambient conditions, 40° C. and 75% relative humidity, 80° C.). In addition to this, an approximate solubility test was conducted on the different solid forms using a solvent addition method.
(§2) All four Forms (1, 2, 3 and 5) were placed under 7 day stress stability testing. This was carried out by placing the four forms under three different conditions for one week. Their physical stability was then analyzed by comparing the diffractograms and the chemical stability was checked by HPLC.

[3] = Desolvation / dehydration on heating, form checked by XRPD
Description: A weight loss of 33.1% is observed, prior to decomposition, which coincides with an onset in the DTA profile at ca. 108.8° C. (onset of the endotherm). The second endothermic event corresponds with decomposition at ca. 186.3° C. (onset of the endotherm). The 33.1% of loss of weight corresponds to 1.96 molecules of DMSO for 1 molecule of sialic acid. It is thus very likely that Form 4 is a stoichiometric bis-solvate (2:1). The ^1H NMR spectrum is consistent with sialic acid. The only noticeable difference between the spectra of Form 1 and Form 4 is the relative size of the resonance at ca. 2.5 ppm. This is due to DMSO, which further supports that Form 4 is a DMSO solvate.
Referring to PLM images (FIG. 20), the habit of Form 5 is block-like with a length around 100 μm. Strong birefringence is observed. […] Further weight losses are present, which may be due to decomposition. The loss of weight of 10.5% correlates very well with the KF Titration (10.34%). It is very likely Form 5 is a dihydrate (expected loss of weight for a dihydrate is 10.44%). […] This possibly indicates the formation of a new anhydrous form by desolvation of Form 5 (onset seen for Form 1 is ca. 188.9° C.). The difference between the TG/DTA and the DSC traces is likely to be due to the difference in pan (open pan for TG/DTA and pierced closed pan for DSC). […]

[4] = HPLC-UV chemical purity
Description: The chemical purity was measured on an Agilent HP1100 HPLC system fitted with an Agilent variable wavelength UV detector. Samples were prepared by dissolving in diluent at a concentration of 1 mg/mL before being analysed under the following HPLC conditions: […]

[5] = 7 day stress stability, physical form by XRPD
Description: XRPD analysis was carried out on a Panalytical X′pert Pro, scanning the samples between 3 and 35° […]. The material was gently ground and loaded onto a multi well plate with Kapton or mylar polymer film to support the sample. The multi well plate was then loaded into a Panalytical diffractometer running in transmission mode and analysed, using the following experimental conditions.
as §1, §2

[6] = PLM (morphology) of the solid forms
[7] = Approximate aqueous solubility of the solid forms (solvent addition method)
Description: as §1
Approximately 50 mg of each form (1, 2, 3 and 5) was weighed into a 2 ml vial. 20 μl aliquots of deionized water was added to each vial until complete dissolution of the solid was observed. The volume was noted down and the approximate water solubility calculated.

[8] = Gravimetric Vapour Sorption (GVS) with post-GVS XRPD
Description: Approximately 10-20 mg of sample was placed into a mesh vapour sorption balance pan and loaded into an IGASorp Moisture Sorption Analyser balance by Hiden Analytical. The sample was subjected to a ramping profile from 40-90% relative humidity (RH) at 10% increments, maintaining the sample at each step until a stable weight had been achieved (98% step completion). After completion of the sorption cycle, the sample was dried using the same procedure to 0% RH, and finally taken back to the starting point of 40% RH. The weight change during the sorption/desorption cycles were plotted, allowing for the hygroscopic nature of the sample to be determined.

In the case of `CC(=O)N[C@H]1[C@H]([C@H](O)[C@H](O)CO)OC(O)(C(=O)O)C[C@@H]1O` (stereo partly drawn) [Form 5, N-acetylneuraminic acid], the “TGA (weight loss)” value [1] is reported as 10.5%, the “TGA temperature of the weight loss” value [1] is reported as “(88.4° C.)” and the HPLC (purity) ([2]; after 1 week at 80° C.) is reported as 96.8%. The “Sialic acid Area % (HPLC)” value ([2]; after 1 week under 40° C., 75% RH, two injections) was 99.899% and 99.919%, the “Sodium Pyruvate Area % (HPLC)” value ([2]; after 1 week under 80° C.) was 0.559% and the HPLC (purity) ([2]; after 1 week, both ambient and 40° C./75% RH samples) was “higher than 99.9%”. For the same molecule, the “Area % Acetic acid (HPLC)” value ([2]; stability under 80° C.) was 0.000%, the “Area % N-acetyl-D-glucosamine (HPLC)” value ([2]; stability under 80° C.) was 0.000% and the “Area % N-acetyl-D-mannosamine (HPLC)” value ([2]; stability under 80° C.) was 0.000%. The “Form after dehydration (XRPD)” value ([3]; held at 90° C. for 35 min in TG/DTA apparatus) was “unknown form”, the “Area % Sodium Pyruvate (HPLC)” value ([4]; no stress condition stated) was 0.000% and the “HPLC (purity)” value ([4]; summary Table 13) was 99.80% and 99.90%. For the same molecule, the “Physical form (XRPD) after stress” value ([5]; 1 week at 40° C./75% RH) was “stable”, the “Physical form (XRPD) after stress” value ([5]; 1 week at 80° C.) was “converts to an unknown form” and the “Physical form (XRPD) after stress” value ([5]; 1 week under ambient conditions) was “stable”. The “Stability - XRPD post Stability” value ([5]; at 80° C.) was “New form 80 °C”, the “Stability - XRPD post Stability” value ([5]; at RT) was “Form 5 at RT” and the “PLM (morphology), particle size” value [6] was under 100 μm. For the same molecule, the “PLM (morphology)” value ([6]; particle shape) was “Blocks”, the Approximate solubility ([7]; aqueous) was 96.6 mg/mL and the “Aqueous Solubility, Solubility in g/L” value ([7]; deionized water, approximate, solvent addition) was 96.6 g/L. The “Hygroscopicity (GVS)” value [8] was “very slightly hygroscopic”, the “Stability when exposed to different humidity levels” value [8] was “stable” and the “XRPD post DVS” value [8] was “no change”. For the same molecule, the GVS mass difference ([8]; between 0-90% relative humidity) was 1.45% and the “Polymorphic form after GVS (XRPD)” value ([8]; material reclaimed after GVS run) was “same polymorphic form (Form 5)”.
With `CC(=O)N[C@H]1[C@H]([C@H](O)[C@H](O)CO)OC(O)(C(=O)O)C[C@@H]1O` (stereo partly drawn) [Form 4, N-acetylneuraminic acid] the “Form after desolvation (XRPD)” value ([3]; 15 min at 100° C. under vacuum) was “converted to Form 1”.
